Laboratory results: patent US10273227B2, “C5-anilinoquinazoline compounds and their use in treating cancer” (AstraZeneca AB, priority 2017, dated 2019)

How the values were obtained:
Type in all cases: cell-based
[1] = target: T1, Ba/F3-T670I (KIT exon11 deletion (557-558) and secondary mutation T670I) (Homo sapiens, UniProt P10721, DEL557-558/T670I); assay: MTS viability assay, Ba/F3 expressing KIT exon11 deletion (557-558) and T670I; details: 72 h incubation, top concentration 10 uM
T1 construct: expressed in transfected cells; host or cells: Ba/F3 cells, lentiviral transduction (pLVX-IRES Puro)
Method: (§1) Exponentially grown Ba/F3 cells (1.5×10^6 cells in 2 ml medium) were infected with 2 ml of viral suspension in a 6-well plate in the presence of mIL-3 (10 ng/ml) and polybrene (4 μg/ml) (Sigma Aldrich, St. Louis, Mo.) and incubated for 24 h. After 24 h, the cells were centrifuged and the viral supernatant was discarded. The cells were then re-suspended in fresh medium and allowed to recover for another day. The following day, the cells were seeded in complete medium without murine IL-3. After a week or two, when cells started proliferating, a selection was carried out by gradually increasing the puromycin concentration to 0.5 ug/ml. Once the cells were growing exponentially in puromycin, batches of cells were frozen down for banking.
(§2) The impact of KIT inhibitors on the viability of Ba/F3 expressing KIT mutations was determined using an MTS assay, which is a colorimetric sensitive quantification of viable cells in proliferation and cytotoxicity assay. In the MTS assay […] in the presence of phenazine methosulfate (PMS) was used. The mitochondrial reductase forms a formazan which absorbs at 490 nm. Cells in exponential growth phase were added to 384-well plates containing pre-dispensed compounds (top concentration 10 uM, 10-point curve). The cells were incubated for 72 h at 37° C. and 5% CO2. After 72 h, MTS reagent was added to the plates and incubated an additional 2 h at 37° C. before measuring the absorbance at 490 nm on a Tecan microplate reader using Magellan Software (Tecan Trading AG, Switzerland).
(§3) The absorbances were normalized as follows: (Read-Day0 control)/(Day3 control−Day0 control)*100. The GI50 values were generated using Genedata Screener software (Genedata Lexington, Mass.). A non-linear regression with constraints for top and bottom between 100 and −100 and no constraint on the Hill coefficient was used to generate GI50 values. The GI50 values reported below are the calculated mean result of at least 3 biological replicates across all the cell lines tested.

[2] = target: T2, Ba/F3-V654A (KIT exon11 deletion (557-558) and secondary mutation V654A) (Homo sapiens, UniProt P10721, DEL557-558/V654A); assay: MTS viability assay, Ba/F3 expressing KIT exon11 deletion (557-558) and V654A; details: 72 h incubation, top concentration 10 uM
T2 construct: expressed in transfected cells; host or cells: Ba/F3 cells, lentiviral transduction (pLVX-IRES Puro)
Method: as §1, §2, §3

[3] = system: Ba/F3-Parental; assay: MTS viability assay, Ba/F3 parental cells; details: Mus musculus, BaF3, 72 h incubation, top concentration 10 uM
Method: as §1, §2, §3

[4] = target: T3, Ba/F3-D816H (KIT exon11 deletion (557-558) and secondary mutation D816H) (Homo sapiens, UniProt P10721, D816H/DEL557-558); assay: MTS viability assay, Ba/F3 expressing KIT exon11 deletion (557-558) and D816H; details: 72 h incubation, top concentration 10 uM
T3 construct: expressed in transfected cells; host or cells: Ba/F3 cells, lentiviral transduction (pLVX-IRES Puro)
Method: as §1, §2, §3

[5] = system: TEL-KDR (KDR (K790-V1356) fused to the C-terminus of Tel); assay: MTS viability assay, Ba/F3 expressing Tel-KDR; details: 72 h incubation, top concentration 10 uM
Method: Tel-KDR myc was cloned into pBCS2004, a retroviral vector, wherein KDR (K790-V1356) is fused to the C-terminus of Tel. Retroviral particles were generated in HEK293T cells. The Tel-KDR plasmid was co-transfected with helper viruses (gag-Pol and VSV-G) into HEK293T cells using calcium phosphate and the virus was harvested 72 h after transfection.
as §1, §2, §3

T3 sequence (P10721 with tags, fused parts or gaps DEL557-558/D816H): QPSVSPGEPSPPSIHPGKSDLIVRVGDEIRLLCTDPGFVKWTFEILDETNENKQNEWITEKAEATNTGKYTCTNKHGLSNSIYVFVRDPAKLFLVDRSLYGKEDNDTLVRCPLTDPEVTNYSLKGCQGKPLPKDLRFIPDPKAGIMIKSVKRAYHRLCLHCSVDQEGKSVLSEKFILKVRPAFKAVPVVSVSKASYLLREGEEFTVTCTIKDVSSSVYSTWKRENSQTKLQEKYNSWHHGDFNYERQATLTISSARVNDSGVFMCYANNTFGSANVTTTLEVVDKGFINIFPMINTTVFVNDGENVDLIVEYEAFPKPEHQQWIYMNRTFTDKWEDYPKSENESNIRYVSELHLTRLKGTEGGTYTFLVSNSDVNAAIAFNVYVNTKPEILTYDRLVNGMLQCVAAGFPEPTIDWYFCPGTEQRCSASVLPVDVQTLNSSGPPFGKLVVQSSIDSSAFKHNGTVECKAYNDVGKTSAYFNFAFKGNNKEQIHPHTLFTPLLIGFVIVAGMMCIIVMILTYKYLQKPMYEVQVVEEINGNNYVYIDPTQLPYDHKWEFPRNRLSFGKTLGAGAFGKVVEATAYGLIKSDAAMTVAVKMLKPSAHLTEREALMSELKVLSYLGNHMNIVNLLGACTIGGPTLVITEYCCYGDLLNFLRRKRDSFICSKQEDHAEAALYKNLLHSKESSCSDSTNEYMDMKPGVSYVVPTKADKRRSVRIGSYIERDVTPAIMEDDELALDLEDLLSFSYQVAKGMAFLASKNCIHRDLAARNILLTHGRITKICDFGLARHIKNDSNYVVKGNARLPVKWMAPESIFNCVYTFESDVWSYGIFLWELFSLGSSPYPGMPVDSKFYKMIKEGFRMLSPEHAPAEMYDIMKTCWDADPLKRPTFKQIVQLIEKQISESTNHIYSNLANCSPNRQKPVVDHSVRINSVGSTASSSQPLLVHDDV
T2 sequence (P10721 with tags, fused parts or gaps DEL557-558/V654A): as the sequence (P10721 with tags, fused parts or gaps DEL557-558/D816H) above, with V627A, H789D counted along it
T1 sequence (P10721 with tags, fused parts or gaps DEL557-558/T670I): as the sequence (P10721 with tags, fused parts or gaps DEL557-558/D816H) above, with T643I, H789D counted along it

| Compound | Ba/F3-T670I GI50 [1] [nM] | Ba/F3-V654A GI50 [2] [nM] | GI50 [3] [nM] | Ba/F3-D816H GI50 [4] [nM] | GI50 [5] [nM] |
| --- | --- | --- | --- | --- | --- |
| CCOc1cc(OC)c2c(Nc3ccc(NC(=O)Cn4cc(C(C)C)nn4)cc3)ncnc2c1 [Example 18, N-{4-[(7-Ethoxy-5-methoxyquinazolin-4-yl)amino]phenyl}-2-[4-(propan-2-yl)-1H-1,2,3-triazol-1-yl]acetamide] | 66 | 3 | ≥ 10000 | 21 | 6010 |
| CCOc1cc(OCCOC)cc2ncnc(Nc3ccc(NC(=O)Cn4cc(C(C)C)nn4)cc3)c12 [Example 8, N-(4-((5-Ethoxy-7-(2-methoxyethoxy)quinazolin-4-yl)amino)phenyl)-2-(4-isopropyl-1H-1,2,3-triazol-1-yl)acetamide] | 32 | 15 | 2550 | 44 | 2150 |
| CCOc1cc(OCC)c2c(Nc3ccc(NC(=O)Cn4cc(C(C)C)nn4)cc3)ncnc2c1 [Example 19, N-{4-[(5,7-Diethoxyquinazolin-4-yl)amino]phenyl}-2-[4-(propan-2-yl)-1H-1,2,3-triazol-1-yl]acetamide] | 34 | 7 | ≥ 10000 | 56 | ≥ 10000 |
| CCOc1cc(OC)cc2ncnc(Nc3ccc(NC(=O)Cn4cc(C(C)C)nn4)cc3)c12 [Example 7, N-(4-((5-Ethoxy-7-methoxyquinazolin-4-yl)amino)phenyl)-2-(4-isopropyl-1H-1,2,3-triazol-1-yl)acetamide] | 73 | 7 | ≥ 10000 | 79 | 3190 |
| COc1cc(F)c2c(Nc3ccc(NC(=O)Cn4cc(C(C)C)nn4)cc3)ncnc2c1 [Example 21, N-{4-[(5-Fluoro-7-methoxyquinazolin-4-yl)amino]phenyl}-2-[4-(propan-2-yl)-1H-1,2,3-triazol-1-yl]acetamide] | 68 | 2 | ≥ 10000 | 25 | ≥ 10000 |
| COc1cc2ncnc(Nc3ccc(NC(=O)Cn4cc(C(C)C)nn4)cc3)c2c(OC)c1OC [Example 11, 2-[4-(Propan-2-yl)-1H-1,2,3-triazol-1-yl]-N-{4-[(5,6,7-trimethoxyquinazolin-4-yl)amino]phenyl}acetamide] | 36 | 4 | ≥ 10000 | 27 | 2480 |
| COc1cc(OC)c2c(Nc3ccc(NC(=O)Cn4cc(C(C)C)nn4)cc3)ncnc2c1 [Example 22, N-{4-[(5,7-Dimethoxyquinazolin-4-yl)amino]phenyl}-2-[4-(propan-2-yl)-1H-1,2,3-triazol-1-yl]acetamide] | 106 | 3 | ≥ 10000 | 48 | 5350 |
| COc1cc(OC2COC2)cc2ncnc(Nc3ccc(NC(=O)Cn4cc(C(C)C)nn4)cc3)c12 [Example 16, N-(4-{[5-Methoxy-7-(oxetan-3-yloxy)quinazolin-4-yl]amino}phenyl)-2-[4-(propan-2-yl)-1H-1,2,3-triazol-1-yl]acetamide] | 502 | 12 | ≥ 10000 | 90 | 9360 |
| CCOc1cc(OC2COC2)cc2ncnc(Nc3ccc(NC(=O)Cn4cc(C(C)C)nn4)cc3)c12 [Example 9, N-(4-((5-Ethoxy-7-(oxetan-3-yloxy)quinazolin-4-yl)amino)phenyl)-2-(4-isopropyl-1H-1,2,3-triazol-1-yl)acetamide] | 127 | 12 | 1710 | 105 | 2330 |
| CCOc1cc(OCCN(C)C)cc2ncnc(Nc3ccc(NC(=O)Cn4cc(C(C)C)nn4)cc3)c12 [Example 6, N-(4-((7-(2-(Dimethylamino)ethoxy)-5-ethoxyquinazolin-4-yl)amino)phenyl)-2-(4-isopropyl-1H-1,2,3-triazol-1-yl)acetamide] | 91 | 13 | 2050 | 63 | 2660 |
| COc1cc(OC)c2c(Nc3ccc(NC(=O)Cn4cc(C(C)C)nn4)cc3F)ncnc2c1 [Example 1, N-(4-[(5,7-dimethoxyquinazolin-4-yl)amino]-3-fluorophenyl)-2-[4-(propan-2-yl)-1H-1,2,3-triazol-1-yl]acetamide] | 162 | 7 | ≥ 10000 | 141 | ≥ 10000 |
| COCCOc1cc(OC)c2c(Nc3ccc(NC(=O)Cn4cc(C(C)C)nn4)cc3)ncnc2c1 [Example 20, N-(4-{[5-Methoxy-7-(2-methoxyethoxy)quinazolin-4-yl]amino}phenyl)-2-[4-(propan-2-yl)-1H-1,2,3-triazol-1-yl]acetamide] | 53 | 8 | 9960 | 30 | 3390 |
| COc1cc2ncnc(Nc3ccc(NC(=O)Cn4cc(C(C)C)nn4)cc3)c2c(F)c1OC [Example 2, N-{4-[(5-fluoro-6,7-dimethoxyquinazolin-4-yl)amino]phenyl}-2-[4-(propan-2-yl)-1H-1,2,3-triazol-1-yl]acetamide] | 49 | 4 | ≥ 10000 | 22 | 2500 |
| COc1cc(OCCN(C)C)cc2ncnc(Nc3ccc(NC(=O)Cn4cc(C(C)C)nn4)cc3)c12 [Example 17, N-[4-({7-[2-(Dimethylamino)ethoxy]-5-methoxyquinazolin-4-yl}amino)phenyl]-2-[4-(propan-2-yl)-1H-1,2,3-triazol-1-yl]acetamide] | 627 | 20 | ≥ 10000 | 88 | ≥ 10000 |
| COCCOc1cc(F)c2c(Nc3ccc(NC(=O)Cn4cc(C(C)C)nn4)cc3)ncnc2c1 [Example 12, N-(4-{[5-Fluoro-7-(2-methoxyethoxy)quinazolin-4-yl]amino}phenyl)-2-[4-(propan-2-yl)-1H-1,2,3-triazol-1-yl]acetamide] | 15 | 2 | ≥ 10000 | 7 | 1300 |
| CCOc1cc(OC2CCOCC2)cc2ncnc(Nc3ccc(NC(=O)Cn4cc(C(C)C)nn4)cc3)c12 [Example 5, N-(4-((5-Ethoxy-7-((tetrahydro-2H-pyran-4-yl)oxy)quinazolin-4-yl)amino)phenyl)-2-(4-isopropyl-1H-1,2,3-triazol-1-yl)acetamide] | 591 | 41 | 1870 | 138 | 6180 |
